Patent US20050165112A1, “Therapeutic agent for inflammatory intestinal diseases containing hydroxamic acid compound as active ingredient” (priority 2002, published 2005)

What was measured:
Format in all cases: in vivo
[1] = test system: acetic acid-induced colitis in male SD (CD) IGS rats; assay: Acetic acid-induced colitis model; details: rat, 0.3 or 3 mg/kg/day, 24 hours after colitis induction
Procedure: Male SD (CD) IGS rats (7 weeks old) were anesthetized with sodium pentobarbital. Colitis was induced by intracolonic instillation of 0.25 mL of 5% acetic acid with a disposable sonde for oral administration for mouse, which is attached to 1 mL syringe (Terumo). The sonde was inserted to 5 cm from anus and acetic acid was infused for 10 seconds. After the removal of the sonde, the anus was plugged for 1 minute. Then the colon was washed with approximate 10 mL of physiological saline with a disposable sonde for oral administration for rat, which was attached to 50 mL syringe (Terumo), and the sonde was inserted to 8 cm from anus.
The test compound or vehicle was administered to animals before 30 minutes and after 8 hours of the colitis induction, at each time half of a dairy dose was administered.
After 24 hours of colitis induction, all colons which from anus to cecum, were removed, the content was washed away with saline solution. After trimming of the washed colon, the colon was cut at 9 cm from anus, wiped out the solution, and weighed with electronic measure. Then the injured area (mm^2) of dissected colon was measured by image analysis.
N-hydroxy-5-hydroxy-2 (S)-methyl-4(S)—(4-phenoxybenzoyl)aminopentanamide (compound (1)) was used as a test compound. Compound (1) was administered to animals at doses of 0.3 or 3 mg/kg/day. […]

rat = assay: Single oral administration toxicity to rat
Procedure: The toxicity of the compounds of the present invention is very low and therefore, the compounds may be considered safe for pharmaceutical use. For example, a minimum of lethal dose of the compound (2) by single oral administration to rat was 2000 mg/kg.

[2] = test system: TNBS-induced colitis in male SD (CD) IGS rats; assay: TNBS-induced colitis model; details: rat, 1, 3 and 10 mg/kg/day, three days after TNBS induction
Procedure: Male SD (CD) IGS rats (7 weeks old) were anesthetized with sodium pentobarbital. A flexible sonde for oral administration was inserted to 8 cm from the anus. Colitis was induced by intracolonic instillation of 50 mg of 2,4,6-trinitrobenzenesulfonic acid (TNBS) dissolved in 0.25 mL of 20% ethanol, and the anus was plugged and leaved for 2 hours. Test compound was administered at 30 minutes before and 8 hours after the TNBS induction, since the next day of TNBS induction they were administered half of a dairy dose at each time, twice daily in the morning and the evening. Three days later the animals were sacrificed with bleeding under ether anesthetization. All colons were removed, the contents was washed out with saline solution, and then measured the length. After the trimming of the colons, 9 cm segment from the anus was obtained, the water was removed on the paper, and the wet weight was measured with electric scale.
N-hydroxy-5-ethoxymethyloxy-2 (S)-methyl-4(S)— (4-phenoxylbenzoil)aminopentanamide (compound (2)) was used as a test compound. FIG. 3 and FIG. 4 show the effects of compound (2) at the doses of 1, 3 and 10 mg/kg/day on the length and the wet weight of colons respectively.

SMILES | injured area ([1]; FIG. 1) | increase in intestine edema (wet weight of colon) ([1]; FIG. 2) | minimum of lethal dose (rat) [mg/kg] | shrinkage of colon (length of all colons) ([2]; FIG. 3) | increase in intestine edema (wet weight of colon) ([2]; FIG. 4)
C[C@@H](C[C@@H](CO)NC(=O)c1ccc(Oc2ccccc2)cc1)C(=O)NO [compound (1), N-hydroxy-5-hydroxy-2 (S)-methyl-4(S)—(4-phenoxybenzoyl)aminopentanamide] | suppressive tendency to the injured area | suppressed the increase in intestine edema |  |  | 
CCOCOC[C@H](C[C@H](C)C(=O)NO)NC(=O)c1ccc(Oc2ccccc2)cc1 [compound (2), N-hydroxy-5-ethoxymethyloxy-2 (S)-methyl-4(S)— (4-phenoxylbenzoil)aminopentanamide] |  |  | 2000 | suppressed the shrinkage of colon | suppressed the shrinkage of colon and the increase in intestine edema
